# Measured values taken from article PMC9837035 (Nature Communications, 2023).
# pIC50: −log10 of the molar value. Values joined by “and” are separate entries in the source; they are usually repeats but may differ in a detail not shown here. Equal entries are not always repeated.
# Experiments:
# [1] = Cell viability assay (WST-8), HUDEP-2; assay type: cell-based, human; settings: human, HUDEP-2 cells, control (0 μM) = 100
# Method: (§1) A WST-8 (2-(2-methoxy-4-nitrophenyl)-3-(4-nitrophenyl)-5-(2,4-disulfophenyl)-2H-tetrazolium) assay using a Cell Counting Kit-8 (DOJINDO) was performed to measure cell viability using an EnSpire microplate reader (PerkinElmer).
# [2] = system: HUDEP-2 cells; assay: Cell viability assay (WST-8), HUDEP-2; assay type: cell-based, human; settings: for cell viability in HUDEP-2 cells: control (0 μM) = 100
# Method: as §1
# [3] = target: T1, G9a (Homo sapiens, UniProt Q96KQ7); assay: biochemical
# T1 sequence (Q96KQ7 1-1210): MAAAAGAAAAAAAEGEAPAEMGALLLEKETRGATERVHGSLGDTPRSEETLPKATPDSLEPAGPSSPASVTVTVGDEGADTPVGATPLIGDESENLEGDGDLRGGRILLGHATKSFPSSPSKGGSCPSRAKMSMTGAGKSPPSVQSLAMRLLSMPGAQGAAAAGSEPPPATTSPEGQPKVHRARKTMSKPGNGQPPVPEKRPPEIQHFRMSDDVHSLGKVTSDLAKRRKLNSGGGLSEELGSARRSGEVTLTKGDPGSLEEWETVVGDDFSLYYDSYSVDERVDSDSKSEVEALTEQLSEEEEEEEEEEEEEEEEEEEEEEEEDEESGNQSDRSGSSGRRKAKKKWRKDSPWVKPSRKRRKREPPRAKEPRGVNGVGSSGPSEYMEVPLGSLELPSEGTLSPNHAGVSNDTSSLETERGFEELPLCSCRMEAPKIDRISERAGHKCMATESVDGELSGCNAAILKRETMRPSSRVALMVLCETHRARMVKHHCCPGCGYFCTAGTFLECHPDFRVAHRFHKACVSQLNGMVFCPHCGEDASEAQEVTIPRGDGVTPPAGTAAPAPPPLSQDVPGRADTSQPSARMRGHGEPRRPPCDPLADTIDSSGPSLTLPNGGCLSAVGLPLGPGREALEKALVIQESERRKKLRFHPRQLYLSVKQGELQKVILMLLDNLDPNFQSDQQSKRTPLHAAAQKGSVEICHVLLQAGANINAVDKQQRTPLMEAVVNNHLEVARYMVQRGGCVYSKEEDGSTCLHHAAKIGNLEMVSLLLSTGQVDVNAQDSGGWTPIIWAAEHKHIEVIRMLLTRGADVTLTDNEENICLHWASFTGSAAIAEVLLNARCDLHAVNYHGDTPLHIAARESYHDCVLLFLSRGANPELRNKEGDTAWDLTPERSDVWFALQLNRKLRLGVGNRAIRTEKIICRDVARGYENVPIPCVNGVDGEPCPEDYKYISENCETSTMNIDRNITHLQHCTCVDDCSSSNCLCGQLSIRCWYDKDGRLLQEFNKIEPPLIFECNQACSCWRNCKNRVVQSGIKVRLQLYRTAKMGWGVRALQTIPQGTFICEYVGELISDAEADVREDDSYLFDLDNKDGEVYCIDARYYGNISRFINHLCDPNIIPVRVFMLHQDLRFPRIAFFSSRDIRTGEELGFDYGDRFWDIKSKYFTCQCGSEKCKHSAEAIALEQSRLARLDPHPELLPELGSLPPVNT
# [4] = system: bone marrow cells of rats; assay: In vivo micronucleus assay
# From the text: A negative control group was established, where the animals received orally 5% methylcellulose solution. […] We counted erythrocytes, recorded the frequencies of polychromatic erythrocyte (PCE) cells in 500 erythrocytes and micronucleated polychromatic erythrocyte (MNPCE) cells in 4000 PCE cells, and calculated the average frequency and the standard deviations for each treatment groups.
# [5] = target: PRMT1 (Homo sapiens, UniProt Q99873)
# [6] = system: mice; assay: Mouse acute toxicity assay, survival; assay type: in vivo; settings: intravenous; for Number of alive mice: 2-week observation
# In short: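 Four-week-old female ICR mice received compounds intravenously in saline with 10% DMSO and 1% Tween 80; body weight and survival monitored.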
# [7] = Dose 10 mg/kg, individual animals
# [8] = Dose 30 mg/kg, individual animals
# [9] = Dose 100 mg/kg, individual animals
# [10] = male rats, oral 2 weeks, 10 mg/kg, Mean ± S.D.
# [11] = male rats, oral 2 weeks, 30 mg/kg, Mean ± S.D.
# [12] = male rats, oral 2 weeks, 100 mg/kg, Mean ± S.D.
# PRMT1, sequence (Q99873 whole entry): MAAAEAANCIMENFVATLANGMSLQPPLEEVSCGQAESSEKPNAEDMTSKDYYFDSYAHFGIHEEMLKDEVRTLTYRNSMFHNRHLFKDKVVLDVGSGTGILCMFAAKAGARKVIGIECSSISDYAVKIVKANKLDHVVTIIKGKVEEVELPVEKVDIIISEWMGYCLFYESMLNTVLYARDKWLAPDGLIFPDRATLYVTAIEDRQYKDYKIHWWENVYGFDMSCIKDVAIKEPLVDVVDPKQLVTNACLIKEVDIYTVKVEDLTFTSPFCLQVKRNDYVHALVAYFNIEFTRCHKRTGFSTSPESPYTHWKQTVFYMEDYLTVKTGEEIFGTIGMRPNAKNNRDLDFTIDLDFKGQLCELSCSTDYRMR
smiles,measurement,setting,value
Cc1c(C(=O)NC(CCC2CC2)C(=O)Nc2ccc(C#N)cc2)[nH]c2c1C(=O)CC(C)(C)C2 (centres unmarked) [RK-701],viability at 0.0137174 μM,[1]; 0.0137174 μM,99.9%
same,viability at 0.123457 μM,[1]; 0.123457 μM,97.4%
same,viability at 0.37037 μM,[1]; 0.37037 μM,99.9%
same,viability at 1.11111 μM,[1]; 1.11111 μM,105%
same,viability at 3.33333 μM,[1]; 3.33333 μM,94.3%
same,viability at 10 μM,[1]; 10 μM,77.4%
same,cell viability in HUDEP-2 cells,[2]; 0.00457247 μM,120.908 and 97.8824 and 118.228
same,cell viability in HUDEP-2 cells,[2]; 0.0137174 μM,97.2549 and 110.051
same,cell viability in HUDEP-2 cells,[2]; 0.0411523 μM,112.451 and 91.2941 and 106.985
same,cell viability in HUDEP-2 cells,[2]; 0.123457 μM,96.9412 and 105.622
same,cell viability in HUDEP-2 cells,[2]; 0.37037 μM,97.8824 and 103.918
same,cell viability in HUDEP-2 cells,[2]; 1.11111 μM,96.3137 and 96.4225
same,cell viability in HUDEP-2 cells,[2]; 3.33333 μM,88.1569 and 84.8382
same,cell viability in HUDEP-2 cells,[2]; 10 μM,78.4314 and 79.046
same,cytotoxic effect on viability,"[2]; HUDEP-2, 3 days",essentially no cytotoxic effect
same,pIC50,[3],7.66 and 7.62
same,MNPCE (%),[4]; [7],0.15% and 0.18% and 0.13% and 0.23%
same,No. of PCE in 500 erythrocytes,[4]; [7],331 and 285 and 278 and 305 and 288
same,Number of MNPCE in 4000 PCE,[4]; [7],6 and 7 and 5 and 9
same,PCE (%),[4]; [7],66.2% and 57% and 55.6% and 61% and 57.6%
same,MNPCE (%),[4]; [8],0.08% and 0.1%
same,No. of PCE in 500 erythrocytes,[4]; [8],299 and 308 and 294 and 330 and 306
same,Number of MNPCE in 4000 PCE,[4]; [8],3 and 4
same,PCE (%),[4]; [8],59.8% and 61.6% and 58.8% and 66% and 61.2%
same,MNPCE (%),[4]; [9],0.13% and 0.1% and 0.18% and 0.15%
same,No. of PCE in 500 erythrocytes,[4]; [9],258 and 313 and 314 and 323 and 328
same,Number of MNPCE in 4000 PCE,[4]; [9],5 and 4 and 7 and 6
same,PCE (%),[4]; [9],51.6% and 62.6% and 62.8% and 64.6% and 65.6%
same,MNPCE (%),[4]; [10],0.17 ± 0.04%
same,No. of PCE in 500 erythrocytes,[4]; [10],297 ± 21
same,PCE (%),[4]; [10],59.5 ± 4.2%
same,MNPCE (%),[4]; [11],0.09 ± 0.01%
same,No. of PCE in 500 erythrocytes,[4]; [11],307 ± 14
same,Number of MNPCE in 4000 PCE,[4]; [11],4 ± 1
same,PCE (%),[4]; [11],61.5 ± 2.8%
same,MNPCE (%),[4]; [12],0.13 ± 0.03%
same,No. of PCE in 500 erythrocytes,[4]; [12],307 ± 28
same,Number of MNPCE in 4000 PCE,[4]; [12],5 ± 1
same,PCE (%),[4]; [12],61.4 ± 5.6%
same,Number of MNPCE in 4000 PCE,"[4]; male rats, oral once a day 2 weeks, 10 mg/kg, Mean ± S.D.",7 ± 1
same,formation of micronuclei in bone marrow cells,"[4]; rats, oral, up to 100 mg/kg, two weeks",did not cause the formation of micronuclei
same,pIC50,[5],< 4.00
same,Number of alive mice,[6]; 12.5 mg/kg,3/3
same,Number of alive mice,[6]; 25 mg/kg,3/3
same,Number of alive mice,[6]; 50 mg/kg,3/3
same,Number of alive mice,[6]; 100 mg/kg,3/3
same,"acute toxicity, survival",[6]; mice,survived for two weeks
